9 compounds from ChEMBL document CHEMBL1124209, “Phosphonoformate and phosphonoacetate derivatives of 5-substituted 2'-deoxyuridines: synthesis and antiviral activity” (1988) can be followed below.

What all share (assay type): functional
In assay [1] the test system is Human alphaherpesvirus 1. Description: Minimum inhibitory concentration causing 25% inhibition of cytopathic effect induced by Herpes simplex virus(HSV) -1 (thymidine kinase deficient) in vero cells.
The test system of assay [2] is Human alphaherpesvirus 2. Description: Minimum inhibitory concentration of compound causing 50% inhibition of cytopathic effect induced by HSV-2 in PRK cells. (In general: Cytopathic effects are the visible damage that an infection or toxin causes in cultured cells.)
The test system of assay [3] is Human alphaherpesvirus 1. Description: Minimum inhibitory concentration causing 25% inhibition cytopathic effect induced by Herpes simplex virus-1 (Brand) in HEp-2 cells.
The species entered for assay [4] is Oryctolagus cuniculus. The experiment in a line: Minimum cytotoxic concentration of compound causing toxic effects on uninfected cells.
Assay [5] concerns Human alphaherpesvirus 2. The experiment in a line: Minimum inhibitory concentration causing 25% inhibition cytopathic effect induced by Herpes simplex virus(HSV) -2 (thymidine kinase deficient) in vero cells.
Assay [6] is filed under the species Oryctolagus cuniculus. Description: Minimum cytotoxic concentration causing toxic effects on uninfected cells in rabbit.
Assay [7] deals with Human alphaherpesvirus 1. The experiment in a line: Cumulative mortality in percent of HSV-1 infected mice, after peroral administration of 5 mg/kg of compound. As to conditions: route oral.
For assay [8], the system named is Human alphaherpesvirus 1. Description: Minimum inhibitory concentration causing 25% inhibition cytopathic effect induced by Herpes simplex virus(HSV) -1 (thymidine kinase deficient) in HEp-2 cells.
In assay [9] the test system is Human alphaherpesvirus 1. The experiment in a line: Minimum inhibitory concentration causing 25% inhibition of cytopathic effect induced by Herpes simplex virus-1 (Brand) in vero cells.
For assay [10], the system named is Mus musculus. The experiment in a line: Cumulative lesions in HSV-1 infected mice, after administration of 0.1 % of compound intracutaneously.
Assay [11] deals with Human alphaherpesvirus 1. Description: Minimum inhibitory concentration of compound causing 50% inhibition of cytopathic effect induced by HSV-1 in PRK cells.
The subject of assay [12] is Human alphaherpesvirus 1. Description: Minimum inhibitory concentration of compound causing 50% inhibition of cytopathic effect induced by HSV-1(thymidine kinase deficient) in PRK cells.
Assay [13] relates to Mus musculus. The experiment in a line: Mean duration of lesions in HSV-1 infected mice, after administration of 0.3 % of compound intracutaneously.
Assay [14] deals with Human alphaherpesvirus 1. Description: Cumulative mortality in percent of HSV-1 infected mice, after intraperitoneal administration of 0.5 mg/kg of compound.
Assay [15] has as its system Human alphaherpesvirus 1. The experiment in a line: Minimum inhibitory concentration causing 25% inhibition of cytopathic effect induced by Herpes simplex virus-1 (K979) in HEp-2 cells.
Assay [16] relates to Mus musculus. Description: Cumulative lesions in HSV-1 infected mice, after administration of 0.3 % of compound intracutaneously.
Assay [17] has as its system Human alphaherpesvirus 1. Description: Minimum inhibitory concentration causing 25% inhibition of cytopathic effect induced by herpes simplex virus (HSV)-1 (K979) in vero cells.
The subject of assay [18] is Human alphaherpesvirus 1. The experiment in a line: Mean survival time in HSV-1 infected mice, after intraperitoneal administration of 0.5 mg/kg of compound.
The subject of assay [19] is Mus musculus. Description: Mean duration of lesions in HSV-1 infected mice, after administration of 0.1 % of compound intracutaneously.
In assay [20] the test system is Human alphaherpesvirus 2. Description: Minimum inhibitory concentration causing 25% inhibition of cytopathic effect induced by Herpes simplex virus(HSV) -2 (thymidine kinase deficient) in HEp-2 cells.
Assay [21] relates to Human alphaherpesvirus 1. Description: Mean survival time in HSV-1 infected mice, after peroral administration of 5 mg/kg of compound. The note with it: route oral.
The test system of assay [22] is Human alphaherpesvirus 1. The experiment in a line: Minimum inhibitory concentration causing 50% inhibition of cytopathic effect induced by HSV-1 in PRK cells.
Assay [23] concerns Human alphaherpesvirus 1. The experiment in a line: (§1) Minimum inhibitory concentration causing 50% inhibition of cytopathic effect induced by HSV-2 in PRK cells.
Assay [24] has as its system Human alphaherpesvirus 1. The experiment in a line: Minimum inhibitory concentration causing 50% inhibition of cytopathic effect induced by HSV-1(thymidine kinase deficient) in PRK cells.
The subject of assay [25] is Mus musculus. Description: Cumulative mortality in percent of HSV-1 (KOS strain) infected mice, after peroral administration of 100 mg/kg of compound. The note with it: route oral.
Assay [26] deals with Mus musculus. Description: Cumulative mortality in percent of HSV-1 infected mice, after peroral administration of 100 mg/kg of compound. The note with it: route oral.
Assay [27] deals with Human alphaherpesvirus 2. Described as §1.
In assay [28] the test system is Human alphaherpesvirus 1. The experiment in a line: Minimum inhibitory concentration causing 50% inhibition of cytopathic effect induced by HSV-1 (thymidine kinase deficient) in PRK cells.
The test system of assay [29] is Human alphaherpesvirus 1. Description: Minimum inhibitory concentration causing 25% inhibition of cytopathic effect induced by Herpes simplex virus(HSV) -1 (Brand) in HEp-2 cells.
Assay [30] has as its system Human alphaherpesvirus 1. Description: Minimum inhibitory concentration causing 25% inhibition of cytopathic effect induced by Herpes simplex virus(HSV) -1 (thymidine kinase deficient) in HEp-2 cells.
The subject of assay [31] is Human alphaherpesvirus 2. The experiment in a line: Minimum inhibitory concentration causing 25% inhibition of cytopathic effect induced by Herpes simplex virus(HSV) -2 (thymidine kinase deficient) in vero cells.
Assay [32] has as its system Mus musculus. The experiment in a line: Mean survival time in HSV-1 infected mice, after intraperitoneal administration of 25 mg/kg.
For assay [33], the system named is Mus musculus. The experiment in a line: Mean survival time in HSV-1 infected mice, after peroral administration of 100 mg/kg. The note with it: route oral.
Assay [34] relates to Mus musculus. The experiment in a line: Cumulative mortality in percent of HSV-1 infected mice, after intraperitoneal administration of 25 mg/kg.
For assay [35], the system named is Human alphaherpesvirus 2. The experiment in a line: Minimum inhibitory concentration causing 25% inhibition cytopathic effect induced by Herpes simplex virus(HSV) -2 (thymidine kinase deficient) in HEp -2 cells.
Assay [36] relates to Human alphaherpesvirus 1. The experiment in a line: Minimum inhibitory concentration of compound causing 50% inhibition of cytopathic effect induced by HSV-1 (thymidine kinase deficient) in PRK cells.

≈ marks a conversion by molar mass, not a printed value.

As to `O=c1[nH]c(=O)n([C@H]2C[C@H](O)[C@@H](CO)O2)cc1CCCl`, the MIC was 34.2 µM (≈ 9.94 µg/mL) in assay [1]; 34.2 µM (≈ 9.94 µg/mL) in [2]; 0.1 µM (≈ 0.0291 µg/mL) in assay [3]; > 342 µM in [5]; > 342 µM in assay [8]; 0.03 µM (≈ 0.00872 µg/mL) in assay [9]. Besides, the MIC in assay [11] is 0.3 µM (≈ 0.0872 µg/mL); in assay [12], > 1370 µM; in [15], 10.2 µM (≈ 2.97 µg/mL); in [17], 102 µM (≈ 29.7 µg/mL); in assay [20] it was > 342 µM. The MTC is >1366 µM in assay [4] and 1127 µM in [6]. The CMP in [7] was determined as 10; in assay [14], 35. In addition, the results for the lesions in [10] and in assay [16] were 40 and 17, respectively. In addition, the MDL in [13] came to 0.9 days; in assay [19] it was 2.4 days. The MST in [18] stood at 16.7 days; in assay [21] it was 19 days.
On to `CCOC(=O)CP(=O)(O)OC[C@H]1O[C@@H](n2cc(/C=C/Br)c(=O)[nH]c2=O)C[C@@H]1O`, for which the MIC in assay [22] was 41.4 µM (≈ 20 µg/mL); in assay [23], > 828 µM; in [24], > 828 µM. Also, the MTC result in [6] is “>=828 uM”. The compound also returned a CMP in [25] of 80.
As to `CCOC(=O)P(=O)(O)OC[C@H]1O[C@@H](n2cc(/C=C\Br)c(=O)[nH]c2=O)C[C@@H]1O`, the MIC in assay [22] is 4.1 µM (≈ 1.92 µg/mL); in [27] it was > 81.1 µM; in assay [24], > 81.1 µM. In assay [26], this compound gave a CMP of 70. The MTC entry in assay [6] is reported as “>=81.1 uM”.
For the compound `COC(=O)P(=O)(O)OC[C@H]1O[C@@H](n2cc(/C=C\Br)c(=O)[nH]c2=O)C[C@@H]1O`, the MIC in assay [22] was 1.5 µM (≈ 0.683 µg/mL); in [28], > 87.9 µM; in assay [27] it was > 87.9 µM. For the same compound, in assay [6], the MTC entry is on record as “>=87.9 uM”. This compound also registered a CMP in [25] of 50.
Consider `COP(=O)(CC(=O)OC[C@H]1O[C@@H](n2cc(I)c(=O)[nH]c2=O)C[C@@H]1O)OC`, for which the MIC was 0.2 µM (≈ 0.101 µg/mL) in assay [29]; 2 µM (≈ 1.01 µg/mL) in [1]; > 198 µM in assay [30]; 0.6 µM (≈ 0.303 µg/mL) in [9]; 198 µM (≈ 99.8 µg/mL) in [15]; 59.5 µM (≈ 30 µg/mL) in assay [31]. The same compound showed an MIC in assay [17] of 5.9 µM (≈ 2.97 µg/mL). The same compound displayed an MTC in assay [6] of 655 µM.
For the compound `Nc1nc2c(ncn2COCCO)c(=O)[nH]1` [ACYCLOVIR], the MIC in assay [1] turned out to be 44 µM (≈ 9.91 µg/mL); in assay [3] it was 4.4 µM (≈ 0.991 µg/mL); in assay [30], 440 µM (≈ 99.1 µg/mL); in assay [9] it was 0.01 µM (≈ 0.00225 µg/mL); in [15], 13.2 µM (≈ 2.97 µg/mL); in assay [31] it was 132 µM (≈ 29.7 µg/mL). Also, the MIC is 1.3 µM (≈ 0.293 µg/mL) in assay [17] and 440 µM (≈ 99.1 µg/mL) in assay [20]. Besides, the CMP stood at 10 in assay [26] and 15 in [34]. Also, the figures for the MST in assay [32] and in assay [33] were 18.6 days and 18.9 days, respectively. The same compound yielded an MTC in assay [6] of 440 µM.
Take `O=c1[nH]c(=O)n([C@H]2C[C@H](O)[C@@H](CO)O2)cc1/C=C/Br` [BRIVUDINE]: the results for the MIC in assay [22], in [27] and in assay [24] were 0.07 µM (≈ 0.0233 µg/mL), 32.6 µM (≈ 10.9 µg/mL) and 1300 µM (≈ 434 µg/mL), respectively. In assay [26], the CMP is on record as 30. In addition, the MTC in [6] is >1302 µM.
Take `O=C(O)P(=O)(O)O` [FOSCARNET]: the MIC was found to be 79.4 µM (≈ 10 µg/mL) in assay [1]; 238 µM (≈ 30 µg/mL) in [22]; 794 µM (≈ 100 µg/mL) in assay [3]; 238 µM (≈ 30 µg/mL) in [35]; 794 µM (≈ 100 µg/mL) in assay [30]; 317 µM (≈ 39.9 µg/mL) in [28]. Moreover, the MIC in [9] turned out to be 238 µM (≈ 30 µg/mL); in assay [27], 159 µM (≈ 20 µg/mL); in [15] it was 238 µM (≈ 30 µg/mL); in assay [31] it was 79.4 µM (≈ 10 µg/mL); in assay [17], 238 µM (≈ 30 µg/mL). Also, the MTC in [4] is >3174 µM; in assay [6] it was 2.619 µM.
For `O=C(O)CP(=O)(O)O` [FOSFONET], the MIC in [1] turned out to be 71.4 µM (≈ 10 µg/mL); in [2], 143 µM (≈ 20 µg/mL); in [3], 214 µM (≈ 30 µg/mL); in [30], 214 µM (≈ 30 µg/mL); in assay [36], 286 µM (≈ 40 µg/mL); in assay [9] it was 71.4 µM (≈ 10 µg/mL). For the same compound, the MIC is 286 µM (≈ 40 µg/mL) in assay [11]; 71.4 µM (≈ 10 µg/mL) in assay [15]; 71.4 µM (≈ 10 µg/mL) in [31]; 71.4 µM (≈ 10 µg/mL) in [17]; 214 µM (≈ 30 µg/mL) in assay [20]. For the same compound, the MTC in assay [4] was >2856 µM; in assay [6], 2.356 µM.
